IC50 data for one compound are collected here from ChEMBL document CHEMBL6096715, “Novel TYK2 Inhibitors for Treating Autoimmune and Inflammatory Diseases” (ACS Med Chem Lett, 2025).

The IC50 is the concentration needed to halve the response being measured. A low value points to greater potency.

The assay deals with Non-receptor tyrosine-protein kinase TYK2 (Homo sapiens, UniProt P29597).
Chain of Non-receptor tyrosine-protein kinase TYK2 (P29597 whole entry): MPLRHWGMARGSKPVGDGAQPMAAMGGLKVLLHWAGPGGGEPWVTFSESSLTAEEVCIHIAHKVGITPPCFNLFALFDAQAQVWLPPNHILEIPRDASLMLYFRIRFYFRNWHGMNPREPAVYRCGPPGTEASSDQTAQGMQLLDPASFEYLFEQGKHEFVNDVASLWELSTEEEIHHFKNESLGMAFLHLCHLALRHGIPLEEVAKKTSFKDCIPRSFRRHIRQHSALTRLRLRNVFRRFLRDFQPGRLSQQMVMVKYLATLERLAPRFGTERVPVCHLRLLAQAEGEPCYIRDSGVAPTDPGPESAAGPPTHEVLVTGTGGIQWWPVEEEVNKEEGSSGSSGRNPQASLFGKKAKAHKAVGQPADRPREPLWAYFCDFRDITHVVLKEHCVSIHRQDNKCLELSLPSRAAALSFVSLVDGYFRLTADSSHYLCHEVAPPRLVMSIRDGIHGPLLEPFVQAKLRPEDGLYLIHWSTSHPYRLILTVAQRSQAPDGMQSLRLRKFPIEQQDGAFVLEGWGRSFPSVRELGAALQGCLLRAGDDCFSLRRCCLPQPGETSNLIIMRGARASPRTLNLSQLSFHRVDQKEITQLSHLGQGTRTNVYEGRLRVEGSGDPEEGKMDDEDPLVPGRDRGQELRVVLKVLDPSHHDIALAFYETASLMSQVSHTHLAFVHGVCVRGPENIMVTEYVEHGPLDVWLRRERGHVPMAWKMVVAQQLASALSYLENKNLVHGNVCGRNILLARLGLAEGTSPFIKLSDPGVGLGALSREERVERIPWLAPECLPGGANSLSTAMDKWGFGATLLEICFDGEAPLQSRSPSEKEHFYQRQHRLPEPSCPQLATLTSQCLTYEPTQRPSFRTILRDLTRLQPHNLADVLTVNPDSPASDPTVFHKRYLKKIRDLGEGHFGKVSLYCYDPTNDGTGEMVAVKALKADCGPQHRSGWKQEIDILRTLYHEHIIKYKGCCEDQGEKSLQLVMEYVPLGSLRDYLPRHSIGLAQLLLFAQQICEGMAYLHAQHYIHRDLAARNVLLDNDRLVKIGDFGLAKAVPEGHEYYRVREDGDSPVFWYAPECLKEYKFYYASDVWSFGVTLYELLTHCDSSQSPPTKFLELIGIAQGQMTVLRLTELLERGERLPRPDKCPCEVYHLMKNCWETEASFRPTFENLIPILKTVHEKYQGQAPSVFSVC

As to `Cn1cc(-c2cc3c(N4C[C@H]5CC[C@@H](C4)N5[C@H]4C[C@@H](C#N)C4(C)C)ccnn3c2)cn1`, the IC50 is 2.33 nM.
